{
  "source": "ChEMBL document CHEMBL3044789",
  "about": "“Comparing weed and crop seedling response to pre-emergence pendimethalin application in Corchorus olitorius and Abelmoschus esculentus” (Crop Prot, 2006)",
  "key": {"Abelmoschus esculentus [1]": {"system": "Abelmoschus esculentus", "test": "Phytotoxicity in Abelmoschus esculentus assessed as seedling emergence at 0.33 kg a.i/ha treated to soil after 7 weeks (reference value: 95 +/- 0.05 %)", "assay_type": "organism-based", "details": "in vivo, other, 1176 h"}, "Ageratum conyzoides [2]": {"system": "Ageratum conyzoides", "test": "Herbicidal activity against Ageratum conyzoides in Corchorus olitorius plots assessed as minor weed growth at 1.32 kg a.i/ha after 2 weeks", "assay_type": "functional"}, "Calopogonium mucunoides [3]": {"system": "Calopogonium mucunoides", "test": "Herbicidal activity against Calopogonium mucunoides in Abelmoschus esculentus plots assessed as weed recovery at 0.33 kg a.i/ha after 2 weeks (reference value: 60.1 +/- 0.46 %)", "assay_type": "functional"}, "Corchorus olitorius [4]": {"system": "Corchorus olitorius", "test": "Phytotoxicity in Corchorus olitorius assessed as crop seedling injury at 0.99 kg a.i/ha after 2 weeks relative to untreated control", "assay_type": "organism-based", "details": "in vivo, 336 h"}, "Calopogonium mucunoides [5]": {"system": "Calopogonium mucunoides", "test": "Herbicidal activity against Calopogonium mucunoides in Abelmoschus esculentus plots assessed as weed cover at 0.99 kg a.i/ha after 2 weeks (reference value: 63.5 +/- 0.29 %)", "assay_type": "functional"}, "Corchorus olitorius [6]": {"system": "Corchorus olitorius", "test": "Phytotoxicity in Corchorus olitorius assessed as seedling injury at 0.99 kg a.i/ha applied as solution after 7 weeks relative to control", "assay_type": "organism-based", "details": "in vivo, other, 1176 h"}, "Calopogonium mucunoides [7]": {"system": "Calopogonium mucunoides", "test": "Herbicidal activity against Calopogonium mucunoides in Abelmoschus esculentus plots assessed as weed cover at 1.32 kg a.i/ha after 7 weeks (reference value: 14.7 +/- 0.46 %)", "assay_type": "functional"}, "Mimosa pudica [8]": {"system": "Mimosa pudica", "test": "Herbicidal activity against Mimosa pudica in Abelmoschus esculentus plots assessed as minor weed growth at 0.33 kg a.i/ha after 2 weeks", "assay_type": "functional"}, "Synedrella nodiflora [9]": {"system": "Synedrella nodiflora", "test": "Herbicidal activity against Synedrella nodiflora form in Abelmoschus esculentus plots assessed as minor weed growth at 0.66 kg a.i/ha after 2 weeks", "assay_type": "functional"}, "Synedrella nodiflora [10]": {"system": "Synedrella nodiflora", "test": "Herbicidal activity against Synedrella nodiflora in Corchorus olitorius plots assessed as major weed growth at 0.33 kg a.i/ha after 2 weeks", "assay_type": "functional"}, "[11]": {"system": "Rottboellia cochinchinensis", "test": "Herbicidal activity against Rottboellia cochinchinensis in Corchorus olitorius plots assessed as weed cover at 0.33 kg a.i/ha after 7 weeks (reference value: 1.7 +/- 0.56 %)", "assay_type": "functional"}, "Ageratum conyzoides [12]": {"system": "Ageratum conyzoides", "test": "Herbicidal activity against Ageratum conyzoides in Abelmoschus esculentus plots assessed as major weed growth at 0.33 kg a.i/ha after 2 weeks", "assay_type": "functional"}, "Euphorbia heterophylla [13]": {"system": "Euphorbia heterophylla", "test": "Herbicidal activity against Euphorbia heterophylla in Abelmoschus esculentus plots assessed as weed cover at 0.33 kg a.i/ha after 7 weeks (reference value: 14.7 +/- 0.46 %)", "assay_type": "functional"}, "Chromolaena odorata [14]": {"system": "Chromolaena odorata", "test": "Herbicidal activity against Chromolaena odorata in Corchorus olitorius plots assessed as minor weed growth at 1.32 kg a.i/ha after 2 weeks", "assay_type": "functional"}, "Commelina diffusa [15]": {"system": "Commelina diffusa", "test": "Herbicidal activity against Commelina diffusa in Corchorus olitorius plots assessed as minor weed growth at 0.66 kg a.i/ha after 2 weeks", "assay_type": "functional"}, "Synedrella nodiflora [16]": {"system": "Synedrella nodiflora", "test": "Herbicidal activity against Synedrella nodiflora in Corchorus olitorius plots assessed as minor weed growth at 0.66 kg a.i/ha after 2 weeks", "assay_type": "functional"}, "Corchorus olitorius [17]": {"system": "Corchorus olitorius", "test": "Phytotoxicity in Corchorus olitorius assessed as seed germination at 0.99 kg a.i/ha applied as solution after 7 weeks relative to untreated control", "assay_type": "organism-based", "details": "in vivo, other, 1176 h"}, "Mimosa pudica [18]": {"system": "Mimosa pudica", "test": "Herbicidal activity against Mimosa pudica in Abelmoschus esculentus plots assessed as weed cover at 0.33 kg a.i/ha after 7 weeks (reference value: 14.7 +/- 0.46 %)", "assay_type": "functional"}, "Calopogonium mucunoides [19]": {"system": "Calopogonium mucunoides", "test": "Herbicidal activity against Calopogonium mucunoides in Abelmoschus esculentus plots assessed as weed cover at 0.66 kg a.i/ha after 2 weeks (reference value: 63.5 +/- 0.29 %)", "assay_type": "functional"}, "Calopogonium mucunoides [20]": {"system": "Calopogonium mucunoides", "test": "Herbicidal activity against Calopogonium mucunoides in Abelmoschus esculentus plots assessed as weed cover at 1.32 kg a.i/ha after 4 weeks (reference value: 22.6 +/- 0.49 %)", "assay_type": "functional"}, "Abelmoschus esculentus [21]": {"system": "Abelmoschus esculentus", "test": "Phytotoxicity in Abelmoschus esculentus assessed as seedling emergence at 0.66 kg a.i/ha treated to soil after 7 weeks (reference value: 95 +/- 0.05 %)", "assay_type": "organism-based", "details": "in vivo, other, 1176 h"}, "Synedrella nodiflora [22]": {"system": "Synedrella nodiflora", "test": "Herbicidal activity against Synedrella nodiflora in Abelmoschus esculentus plots assessed as major weed growth at 0.33 kg a.i/ha after 2 weeks", "assay_type": "functional"}, "Corchorus olitorius [23]": {"system": "Corchorus olitorius", "test": "Phytotoxicity in Corchorus olitorius assessed as seedling emergence at 1.32 kg a.i/ha treated to soil after 7 weeks (reference value: 95 +/- 0.05 %)", "assay_type": "organism-based", "details": "in vivo, other, 1176 h"}, "Calopogonium mucunoides [24]": {"system": "Calopogonium mucunoides", "test": "Herbicidal activity against Calopogonium mucunoides in Corchorus olitorius plots assessed as weed cover at 0.66 kg a.i/ha after 4 weeks (reference value: 20.1+/- 0.57 %)", "assay_type": "functional"}, "Euphorbia heterophylla [25]": {"system": "Euphorbia heterophylla", "test": "Herbicidal activity against Euphorbia heterophylla in Corchorus olitorius plots assessed as weed cover at 0.66 kg a.i/ha after 2 weeks (reference value: 81.7 +/- 0.43 %)", "assay_type": "functional"}, "Commelina diffusa [26]": {"system": "Commelina diffusa", "test": "Herbicidal activity against Commelina diffusa in Corchorus olitorius plots assessed as weed recovery at 0.66 kg a.i/ha after 2 weeks (reference value: 78.3 +/- 0.74 %)", "assay_type": "functional"}, "Cyperus rotundus": {"system": "Cyperus rotundus", "test": "Herbicidal activity against Cyperus rotundus in Corchorus olitorius plots assessed as weed cover at 0.66 kg a.i/ha after 4 weeks (reference value: 20.1+/- 0.57 %)", "assay_type": "functional"}, "Asteraceae": {"system": "Asteraceae", "test": "Herbicidal activity against Aspilia africana in Corchorus olitorius plots assessed as weed cover at 0.66 kg a.i/ha after 7 weeks (reference value: 1.7 +/- 0.56 %)", "assay_type": "functional"}, "[27]": {"system": "Rottboellia cochinchinensis", "test": "Herbicidal activity against Rottboellia cochinchinensis in Abelmoschus esculentus plots assessed as weed cover at 0.33 kg a.i/ha after 4 weeks (reference value: 22.6 +/- 0.49 %)", "assay_type": "functional"}, "Ageratum conyzoides [28]": {"system": "Ageratum conyzoides", "test": "Herbicidal activity against Ageratum conyzoides in Abelmoschus esculentus plots assessed as weed cover at 0.33 kg a.i/ha after 2 weeks (reference value: 63.5 +/- 0.29 %)", "assay_type": "functional"}, "Synedrella nodiflora [29]": {"system": "Synedrella nodiflora", "test": "Herbicidal activity against Synedrella nodiflora in Abelmoschus esculentus plots assessed as major weed growth at 0.99 kg a.i/ha after 2 weeks", "assay_type": "functional"}, "Corchorus olitorius [30]": {"system": "Corchorus olitorius", "test": "Phytotoxicity in Corchorus olitorius assessed as root length at 0.33 kg a.i/ha applied as solution after 7 weeks (reference value: 14.3 +/- 1.06 mm)", "assay_type": "organism-based", "details": "in vivo, other, 1176 h"}, "Synedrella nodiflora [31]": {"system": "Synedrella nodiflora", "test": "Herbicidal activity against Synedrella nodiflora in Abelmoschus esculentus plots assessed as weed recovery at 1.32 kg a.i/ha after 2 weeks (reference value: 60.1 +/- 0.46 %)", "assay_type": "functional"}, "Synedrella nodiflora [32]": {"system": "Synedrella nodiflora", "test": "Herbicidal activity against Synedrella nodiflora in Corchorus olitorius plots assessed as weed cover at 0.99 kg a.i/ha after 7 weeks (reference value: 1.7 +/- 0.56 %)", "assay_type": "functional"}, "Chromolaena odorata [33]": {"system": "Chromolaena odorata", "test": "Herbicidal activity against Chromolaena odorata in Corchorus olitorius plots assessed as weed cover at 0.33 kg a.i/ha after 7 weeks (reference value: 1.7 +/- 0.56 %)", "assay_type": "functional"}, "Synedrella nodiflora [34]": {"system": "Synedrella nodiflora", "test": "Herbicidal activity against Synedrella nodiflora in Abelmoschus esculentus plots assessed as weed cover at 0.33 kg a.i/ha after 4 weeks (reference value: 22.6 +/- 0.49 %)", "assay_type": "functional"}, "Euphorbia heterophylla [35]": {"system": "Euphorbia heterophylla", "test": "Herbicidal activity against Euphorbia heterophylla in Corchorus olitorius plots assessed as weed cover at 0.99 kg a.i/ha after 2 weeks (reference value: 81.7 +/- 0.43 %)", "assay_type": "functional"}},
  "data": [
    {"molecule": "CCC(CC)Nc1c([N+](=O)[O-])cc(C)c(C)c1[N+](=O)[O-]", "note": "[PENDIMETHALIN]", "values": [
      {"measurement": "Activity", "setting": "Abelmoschus esculentus [1]", "value": 85, "unit": "%"},
      {"measurement": "Activity", "setting": "Ageratum conyzoides [2]", "value": "1 /m2"},
      {"measurement": "Activity", "setting": "Calopogonium mucunoides [3]", "value": 39.2, "unit": "%"},
      {"measurement": "Activity", "setting": "Corchorus olitorius [4]", "value": 60, "unit": "%"},
      {"measurement": "Activity", "setting": "Calopogonium mucunoides [5]", "value": 47.9, "unit": "%"},
      {"measurement": "Activity", "setting": "Corchorus olitorius [6]", "value": 46.7, "unit": "%"},
      {"measurement": "Activity", "setting": "Calopogonium mucunoides [7]", "value": 82.4, "unit": "%"},
      {"measurement": "Activity", "setting": "Mimosa pudica [8]", "value": "1 /m2"},
      {"measurement": "Activity", "setting": "Synedrella nodiflora [9]", "value": "1 /m2"},
      {"measurement": "Activity", "setting": "Synedrella nodiflora [10]", "value": "31 /m2"},
      {"measurement": "Activity", "setting": "[11]", "value": 100, "unit": "%"},
      {"measurement": "Activity", "setting": "Ageratum conyzoides [12]", "value": "31 /m2"},
      {"measurement": "Activity", "setting": "Euphorbia heterophylla [13]", "value": 90, "unit": "%"},
      {"measurement": "Activity", "setting": "Chromolaena odorata [14]", "value": "1 /m2"},
      {"measurement": "Activity", "setting": "Commelina diffusa [15]", "value": "1 /m2"},
      {"measurement": "Activity", "setting": "Synedrella nodiflora [16]", "value": "1 /m2"},
      {"measurement": "Activity", "setting": "Corchorus olitorius [17]", "value": 72.7, "unit": "%"},
      {"measurement": "Activity", "setting": "Mimosa pudica [18]", "value": 90, "unit": "%"},
      {"measurement": "Activity", "setting": "Calopogonium mucunoides [19]", "value": 50.8, "unit": "%"},
      {"measurement": "Activity", "setting": "Calopogonium mucunoides [20]", "value": 36.2, "unit": "%"},
      {"measurement": "Activity", "setting": "Abelmoschus esculentus [21]", "value": 82, "unit": "%"},
      {"measurement": "Activity", "setting": "Synedrella nodiflora [22]", "value": "31 /m2"},
      {"measurement": "Activity", "setting": "Corchorus olitorius [23]", "value": 83.3, "unit": "%"},
      {"measurement": "Activity", "setting": "Calopogonium mucunoides [24]", "value": 63.3, "unit": "%"},
      {"measurement": "Activity", "setting": "Euphorbia heterophylla [25]", "value": 51.7, "unit": "%"},
      {"measurement": "Activity", "setting": "Commelina diffusa [26]", "value": 33.3, "unit": "%"},
      {"measurement": "Activity", "setting": "Cyperus rotundus", "value": 63.3, "unit": "%"},
      {"measurement": "Activity", "setting": "Asteraceae", "value": 100, "unit": "%"},
      {"measurement": "Activity", "setting": "[27]", "value": 53.8, "unit": "%"},
      {"measurement": "Activity", "setting": "Ageratum conyzoides [28]", "value": 56.8, "unit": "%"},
      {"measurement": "Activity", "setting": "Synedrella nodiflora [29]", "value": "31 /m2"},
      {"measurement": "Activity", "setting": "Corchorus olitorius [30]", "value": 3.1, "unit": "mm"},
      {"measurement": "Activity", "setting": "Synedrella nodiflora [31]", "value": 33.2, "unit": "%"},
      {"measurement": "Activity", "setting": "Synedrella nodiflora [32]", "value": 95, "unit": "%"},
      {"measurement": "Activity", "setting": "Chromolaena odorata [33]", "value": 100, "unit": "%"},
      {"measurement": "Activity", "setting": "Synedrella nodiflora [34]", "value": 53.8, "unit": "%"},
      {"measurement": "Activity", "setting": "Euphorbia heterophylla [35]", "value": 51.7, "unit": "%"}
    ]}
  ]
}
